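96-well plates; 48 h exposure; 5 concentrations. Endpoints by linear interpolation between flanking doses. Not reached: highest tested concentration assigned. GI50: concentration for 50% inhibition of growth.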 The source made the active and inactive calls. No stated cut-off is given here; in the data, active = GI50 up to about 1.1 µM and inactive = higher.
Legend:
Assay in all cases: NCI anticancer screen, dose series, 48 h
786-0 = test system: 786-0
A498 = test system: A498
A549 = test system: A549
ACHN = test system: ACHN
BT-549 = test system: BT-549
CAKI-1 = test system: CAKI-1
CCRF-CEM = test system: CCRF-CEM
COLO 205 = test system: COLO 205
DU-145 = test system: DU-145
EKVX = test system: EKVX
HCC 2998 = test system: HCC 2998
HCT-116 = test system: HCT-116
HCT-15 = test system: HCT-15
HL-60 = test system: HL-60
HOP-62 = test system: HOP-62
HOP-92 = test system: HOP-92
HT-29 = test system: HT-29
Hs-578T = test system: Hs-578T
IGROV-1 = test system: IGROV-1
K562 = test system: K562
KM12 = test system: KM12
LOX IMVI = test system: LOX IMVI
M14 = test system: M14
MCF7 = test system: MCF7
MDA-MB-231 = test system: MDA-MB-231
MDA-MB-435 = test system: MDA-MB-435
MDA-N = test system: MDA-N
MOLT-4 = test system: MOLT-4
Malme-3M = test system: Malme-3M
NCI-H226 = test system: NCI-H226
NCI-H23 = test system: NCI-H23
NCI-H522 = test system: NCI-H522
NCI/ADR-RES = test system: NCI/ADR-RES
OVCAR-3 = test system: OVCAR-3
OVCAR-4 = test system: OVCAR-4
OVCAR-5 = test system: OVCAR-5
OVCAR-8 = test system: OVCAR-8
RPMI-8226 = test system: RPMI-8226
RXF 393 = test system: RXF 393
SF-268 = test system: SF-268
SF-295 = test system: SF-295
SF-539 = test system: SF-539
SK-MEL-2 = test system: SK-MEL-2
SK-MEL-5 = test system: SK-MEL-5
SK-OV-3 = test system: SK-OV-3
SN12C = test system: SN12C
SNB-19 = test system: SNB-19
SNB-75 = test system: SNB-75
SR = test system: SR
SW-620 = test system: SW-620
T47D = test system: T47D
TK-10 = test system: TK-10
U-251 = test system: U-251
UACC-257 = test system: UACC-257
UACC-62 = test system: UACC-62
UO-31 = test system: UO-31
NCI-H460 = test system: NCI-H460
PC-3 = test system: PC-3
SK-MEL-28 = test system: SK-MEL-28

Question: With `Cn1c(=O)c2c3ccccc3n(C)c2n(C)c1=O` as the compound, how does the GI50 (786-0) read?
Answer: > 100 µM (inactive)

Question: What about the GI50 (A498) of the same compound?
Answer: > 100 µM (inactive)

Question: And the GI50 (A549)?
Answer: > 100 µM (inactive)

Question: And the GI50 (ACHN)?
Answer: 97.9 µM (inactive)

Question: What about the GI50 (BT-549) of the same compound?
Answer: > 100 µM (inactive)

Question: What about the GI50 (CAKI-1) of the same compound?
Answer: > 100 µM (inactive)

Question: And the GI50 (CCRF-CEM)?
Answer: > 100 µM (inactive)

Question: And the GI50 (COLO 205)?
Answer: > 100 µM (inactive)

Question: What about the GI50 (DU-145) of the same compound?
Answer: > 100 µM (inactive)

Question: And the GI50 (EKVX)?
Answer: > 100 µM (inactive)

Question: What about the GI50 (HCC 2998) of the same compound?
Answer: > 100 µM (inactive)

Question: What about the GI50 (HCT-116) of the same compound?
Answer: > 100 µM (inactive)

Question: What about the GI50 (HCT-15) of the same compound?
Answer: > 100 µM

Question: What about the GI50 (HL-60) of the same compound?
Answer: > 100 µM (inactive)

Question: And the GI50 (HOP-62)?
Answer: > 100 µM (inactive)

Question: And the GI50 (HOP-92)?
Answer: > 100 µM (inactive)

Question: What about the GI50 (HT-29) of the same compound?
Answer: > 100 µM (inactive)

Question: And the GI50 (Hs-578T)?
Answer: > 100 µM (inactive)

Question: What about the GI50 (IGROV-1) of the same compound?
Answer: > 100 µM (inactive)

Question: And the GI50 (K562)?
Answer: > 100 µM (inactive)

Question: What about the GI50 (KM12) of the same compound?
Answer: > 100 µM (inactive)

Question: And the GI50 (LOX IMVI)?
Answer: > 100 µM (inactive)

Question: What about the GI50 (M14) of the same compound?
Answer: > 100 µM (inactive)

Question: What about the GI50 (MCF7) of the same compound?
Answer: > 100 µM (inactive)

Question: And the GI50 (MDA-MB-231)?
Answer: > 100 µM (inactive)

Question: What about the GI50 (MDA-MB-435) of the same compound?
Answer: > 100 µM (inactive)

Question: And the GI50 (MDA-N)?
Answer: > 100 µM (inactive)

Question: And the GI50 (MOLT-4)?
Answer: > 100 µM (inactive)

Question: What about the GI50 (Malme-3M) of the same compound?
Answer: > 100 µM (inactive)

Question: What about the GI50 (NCI-H226) of the same compound?
Answer: > 100 µM (inactive)

Question: What about the GI50 (NCI-H23) of the same compound?
Answer: > 100 µM (inactive)

Question: What about the GI50 (NCI-H522) of the same compound?
Answer: > 100 µM (inactive)

Question: What about the GI50 (NCI/ADR-RES) of the same compound?
Answer: > 100 µM (inactive)

Question: What about the GI50 (OVCAR-3) of the same compound?
Answer: > 100 µM (inactive)

Question: What about the GI50 (OVCAR-4) of the same compound?
Answer: > 100 µM (inactive)

Question: What about the GI50 (OVCAR-5) of the same compound?
Answer: > 100 µM (inactive)

Question: And the GI50 (OVCAR-8)?
Answer: > 100 µM (inactive)

Question: What about the GI50 (RPMI-8226) of the same compound?
Answer: > 100 µM (inactive)

Question: And the GI50 (RXF 393)?
Answer: > 100 µM (inactive)

Question: What about the GI50 (SF-268) of the same compound?
Answer: > 100 µM (inactive)

Question: And the GI50 (SF-295)?
Answer: > 100 µM (inactive)

Question: What about the GI50 (SF-539) of the same compound?
Answer: > 100 µM (inactive)

Question: What about the GI50 (SK-MEL-2) of the same compound?
Answer: > 100 µM (inactive)

Question: And the GI50 (SK-MEL-5)?
Answer: > 100 µM (inactive)

Question: What about the GI50 (SK-OV-3) of the same compound?
Answer: 22.3 µM (inactive)

Question: What about the GI50 (SN12C) of the same compound?
Answer: > 100 µM (inactive)

Question: And the GI50 (SNB-19)?
Answer: > 100 µM (inactive)

Question: And the GI50 (SNB-75)?
Answer: 1.26 µM (inactive)

Question: And the GI50 (SR)?
Answer: > 100 µM (inactive)

Question: And the GI50 (SW-620)?
Answer: > 100 µM (inactive)

Question: What about the GI50 (T47D) of the same compound?
Answer: > 100 µM (inactive)

Question: What about the GI50 (TK-10) of the same compound?
Answer: > 100 µM (inactive)

Question: And the GI50 (U-251)?
Answer: > 100 µM (inactive)

Question: What about the GI50 (UACC-257) of the same compound?
Answer: > 100 µM (inactive)

Question: What about the GI50 (UACC-62) of the same compound?
Answer: > 100 µM (inactive)

Question: And the GI50 (UO-31)?
Answer: > 100 µM (inactive)

Question: `CCOC(=O)c1[nH]c2nc(SC)nc(NC)c2c1N` was tested. Which GI50 (786-0) did it give?
Answer: > 100 µM (inactive)

Question: And the GI50 (A498)?
Answer: > 100 µM (inactive)

Question: What about the GI50 (A549) of the same compound?
Answer: > 100 µM (inactive)

Question: What about the GI50 (ACHN) of the same compound?
Answer: > 100 µM (inactive)

Question: And the GI50 (BT-549)?
Answer: > 100 µM (inactive)

Question: And the GI50 (CAKI-1)?
Answer: > 100 µM (inactive)

Question: And the GI50 (CCRF-CEM)?
Answer: 60 µM (inactive)

Question: And the GI50 (COLO 205)?
Answer: > 100 µM (inactive)

Question: What about the GI50 (DU-145) of the same compound?
Answer: > 100 µM (inactive)

Question: And the GI50 (HCC 2998)?
Answer: 87.5 µM (inactive)

Question: And the GI50 (HCT-116)?
Answer: > 100 µM (inactive)

Question: What about the GI50 (HCT-15) of the same compound?
Answer: 84.1 µM

Question: And the GI50 (HOP-62)?
Answer: > 100 µM (inactive)

Question: What about the GI50 (HT-29) of the same compound?
Answer: 47.3 µM (inactive)

Question: What about the GI50 (Hs-578T) of the same compound?
Answer: > 100 µM (inactive)

Question: And the GI50 (IGROV-1)?
Answer: > 100 µM (inactive)

Question: What about the GI50 (K562) of the same compound?
Answer: 90.2 µM (inactive)

Question: What about the GI50 (KM12) of the same compound?
Answer: > 100 µM (inactive)

Question: What about the GI50 (LOX IMVI) of the same compound?
Answer: 43.2 µM (inactive)

Question: And the GI50 (M14)?
Answer: 92.7 µM (inactive)

Question: What about the GI50 (MDA-MB-231) of the same compound?
Answer: > 100 µM (inactive)

Question: And the GI50 (MDA-MB-435)?
Answer: > 100 µM (inactive)

Question: And the GI50 (MDA-N)?
Answer: > 100 µM (inactive)

Question: What about the GI50 (MOLT-4) of the same compound?
Answer: 68.2 µM (inactive)

Question: What about the GI50 (Malme-3M) of the same compound?
Answer: > 100 µM (inactive)

Question: And the GI50 (NCI-H226)?
Answer: 42.8 µM (inactive)

Question: What about the GI50 (NCI-H23) of the same compound?
Answer: > 100 µM (inactive)

Question: What about the GI50 (NCI-H460) of the same compound?
Answer: 60.4 µM (inactive)

Question: What about the GI50 (NCI-H522) of the same compound?
Answer: 51.4 µM (inactive)

Question: And the GI50 (NCI/ADR-RES)?
Answer: 59.6 µM (inactive)

Question: What about the GI50 (OVCAR-3) of the same compound?
Answer: > 100 µM (inactive)

Question: And the GI50 (OVCAR-4)?
Answer: > 100 µM (inactive)

Question: What about the GI50 (OVCAR-5) of the same compound?
Answer: > 100 µM (inactive)

Question: And the GI50 (OVCAR-8)?
Answer: > 100 µM (inactive)

Question: What about the GI50 (PC-3) of the same compound?
Answer: > 100 µM (inactive)

Question: What about the GI50 (RPMI-8226) of the same compound?
Answer: 46 µM (inactive)

Question: What about the GI50 (RXF 393) of the same compound?
Answer: > 100 µM (inactive)

Question: What about the GI50 (SF-268) of the same compound?
Answer: > 100 µM (inactive)

Question: What about the GI50 (SF-295) of the same compound?
Answer: > 100 µM (inactive)

Question: What about the GI50 (SK-MEL-28) of the same compound?
Answer: > 100 µM (inactive)

Question: And the GI50 (SK-MEL-2)?
Answer: > 100 µM (inactive)

Question: What about the GI50 (SK-MEL-5) of the same compound?
Answer: 30.3 µM (inactive)

Question: And the GI50 (SK-OV-3)?
Answer: > 100 µM (inactive)

Question: And the GI50 (SN12C)?
Answer: > 100 µM (inactive)

Question: And the GI50 (SNB-19)?
Answer: > 100 µM (inactive)

Question: And the GI50 (SNB-75)?
Answer: 70.5 µM (inactive)

Question: And the GI50 (SW-620)?
Answer: > 100 µM (inactive)

Question: What about the GI50 (T47D) of the same compound?
Answer: 83.8 µM (inactive)

Question: And the GI50 (TK-10)?
Answer: > 100 µM (inactive)

Question: What about the GI50 (U-251) of the same compound?
Answer: > 100 µM (inactive)

Question: What about the GI50 (UACC-257) of the same compound?
Answer: > 100 µM (inactive)

Question: What about the GI50 (UACC-62) of the same compound?
Answer: 85.7 µM (inactive)

Question: What about the GI50 (UO-31) of the same compound?
Answer: > 100 µM (inactive)
